The record followed here is patent US7776862B2, “Pyridyl and phenyl substituted piperazine-piperidines with CXCR3 antagonist activity” (Schering Corporation, priority 2005, dated 2010).

SMILES strings stand for the structures. Some results are limits rather than exact numbers.

Broadly, the IC50 is the point on the concentration scale where inhibition reaches its midpoint. Lower therefore signals greater potency.

The target of the assay is T1, human CXCR3 (N-delta 4) (Homo sapiens, UniProt P49682).
T1 construct: CD8 leader; Flag tag; expressed in transfected cells; membranes used
T1 sequence (P49682 5-368 limits assumed): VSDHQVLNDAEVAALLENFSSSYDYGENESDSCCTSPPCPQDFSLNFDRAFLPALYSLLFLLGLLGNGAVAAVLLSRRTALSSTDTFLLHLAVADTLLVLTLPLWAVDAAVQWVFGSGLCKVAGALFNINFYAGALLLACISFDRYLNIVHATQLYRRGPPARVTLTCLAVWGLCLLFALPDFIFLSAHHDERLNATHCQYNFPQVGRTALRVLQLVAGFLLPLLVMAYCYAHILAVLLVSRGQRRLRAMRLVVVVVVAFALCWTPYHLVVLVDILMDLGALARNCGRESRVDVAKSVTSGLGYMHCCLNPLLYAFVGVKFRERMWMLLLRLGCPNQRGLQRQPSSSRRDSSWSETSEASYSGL
Description: Human CXCR3 (N-delta 4) scintillation proximity assay (SPA), [125I] IP-10 binding. Conditions: IC50 rating; Ba/F3-hCXCR3 (N-delta 4) membranes, 25 pM [125I] IP-10. The essentials: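 IP-10 and compound titrations added together. The receptor source was SPA beads bearing membranes from Ba/F3 cells transfected with human CXCR3 (N-delta 4) carrying a CD8 leader and Flag tag.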
On the technique in general: Scintillation proximity formats need no separation of bound from free tracer.
Compound `CC[C@H]1CN(c2ncc(CNC(N)=O)cc2Cl)CCN1C1CCN(Cc2ccc(Cl)cc2F)CC1` [compound 379] yielded an IC50 of less than 25 nM.
On to `CC[C@H]1CN(c2ncc(CNS(C)(=O)=O)cc2Cl)CCN1C1CCN(Cc2ccc(Cl)cc2F)CC1` [compound 380], for which the IC50 was less than 25 nM.
As for `CC[C@H]1CN(c2ncc(CN/C(=N\C#N)NCC(F)(F)F)cc2Cl)CCN1C1CCN(Cc2ccc(Cl)cc2F)CC1` [compound 381], the IC50 is less than 25 nM.
Turning to `CCNC(=O)OCc1cnc(N2CCN(C3CCN(Cc4ccc(Cl)cc4F)CC3)[C@@H](CC)C2)c(Cl)c1` [compound 382], the IC50 was less than 25 nM.
The result for `CC[C@H]1CN(c2ncc(CO)cc2Cl)CCN1C1CCN(Cc2ccc(Br)cc2F)CC1` [compound 383] reads less than 25 nM.
Take `CC[C@H]1CN(c2ncc(CNS(=O)(=O)N(C)C)cc2Cl)CCN1C1CCN(Cc2ccc(Br)cc2F)CC1` [compound 384]: the IC50 is less than 25 nM.
As to `CCNC(=O)NCc1cnc(N2CCN(C3CCN(Cc4ccc(Cl)cc4)CC3)[C@@H](C)C2)c(Cl)c1` [compound 385], the IC50 is less than 25 nM.
The result for `CC[C@H]1CN(c2ncc(CNS(=O)(=O)CC)cc2Cl)CCN1C1CCN(Cc2ccc(Cl)cc2F)CC1` [compound 386] reads less than 25 nM.
As to `CC[C@H]1CN(c2ncc(CNC(C)=O)cc2Cl)CCN1C1CCN(Cc2ccc(Cl)cc2F)CC1` [compound 387], the IC50 was less than 25 nM.
In turn, `CCCS(=O)(=O)NCc1cnc(N2CCN(C3CCN(Cc4ccc(Cl)cc4F)CC3)[C@@H](CC)C2)c(Cl)c1` [compound 388] yielded an IC50 of less than 25 nM.
Compound `CC[C@H]1CN(c2ncc(CN/C(N)=N\C#N)cc2Cl)CCN1C1CCN(Cc2ccc(Cl)cc2F)CC1` [compound 389] gave an IC50 of less than 25 nM.
The result for `CC[C@H]1CN(c2ncc(CNC(=O)NC3CCCCC3)cc2Cl)CCN1C1CCN(Cc2ccc(Cl)cc2F)CC1` [compound 390] reads less than 25 nM; that for `CC[C@H]1CN(c2ncc(CNS(=O)(=O)N(C)C)cc2Cl)CCN1C1CCN(Cc2ccc(Cl)cc2F)CC1` [compound 391], less than 25 nM.
Take `CC[C@H]1CN(c2ncc(CO)cc2Cl)CCN1C1CCN(Cc2ccc(Cl)cc2F)CC1` [compound 392]: the IC50 is less than 25 nM.
Turning to `CC[C@H]1CN(c2ncc(CNC)cc2Cl)CCN1C1CCN(Cc2ccc(Cl)cc2F)CC1` [compound 393], the IC50 was less than 25 nM.
In turn, `CC[C@H]1CN(c2ncc(CNC(=N)N)cc2Cl)CCN1C1CCN(Cc2ccc(Cl)cc2F)CC1` [compound 394] displayed an IC50 of less than 25 nM.
Consider `CC[C@H]1CN(c2ncc(CNC3CC3)cc2Cl)CCN1C1CCN(Cc2ccc(Cl)cc2F)CC1` [compound 395], for which the IC50 was less than 25 nM.
`CC[C@H]1CN(c2ncc(CNC(=O)NCC(F)(F)F)cc2Cl)CCN1C1CCN(C(=O)c2ccc(Br)cc2)CC1` [compound 396] yielded an IC50 of less than 25 nM.
Consider `CCNC(=O)NCc1cnc(N2CCN(C3CCN(Cc4ccc(Cl)cc4)CC3)[C@@H](CC)C2)c(Cl)c1` [compound 397], for which the IC50 is less than 25 nM.
As to `CC[C@H]1CN(c2ncc(CNC(=O)Nc3ccc(F)c(F)c3)cc2Cl)CCN1C1CCN(Cc2ccc(Cl)cc2)CC1` [compound 400], the IC50 was less than 25 nM.
`CC[C@H]1CN(c2ncc(CNC(=O)NN)cc2Cl)CCN1C1CCN(Cc2ccc(Cl)cc2F)CC1` [compound 401] returned an IC50 of less than 25 nM.
As for `CC[C@H]1CN(c2ncc(COC(=O)Nc3c(C)noc3C)cc2Cl)CCN1C1CCN(Cc2ccc(Cl)cc2F)CC1` [compound 402], the figure is less than 25 nM; as for `CC[C@H]1CN(c2ncc(CN/C(=N\C#N)NC)cc2Cl)CCN1C1CCN(Cc2ccc(Cl)cc2F)CC1` [compound 403], less than 25 nM; as for `CC[C@H]1CN(c2ncc(C(N)=NO)cc2Cl)CCN1C1CCN(Cc2ccc(Cl)cc2F)CC1` [compound 404], less than 25 nM.
As for `CC[C@H]1CN(c2ncc(COC(=O)NC(C)C)cc2Cl)CCN1C1CCN(Cc2ccc(Cl)cc2F)CC1` [compound 405], the figure is less than 25 nM.
Regarding `CCNCc1cnc(N2CCN(C3CCN(Cc4ccc(Cl)cc4F)CC3)[C@@H](CC)C2)c(Cl)c1` [compound 406], the IC50 is less than 25 nM.
Take `CC[C@H]1CN(c2ncc(CNc3nccs3)cc2Cl)CCN1C1CCN(Cc2ccc(Cl)cc2F)CC1` [compound 407]: the IC50 was less than 25 nM.
With `CC[C@H]1CN(c2ncc(CNC(=O)N(C(=O)NC3CC3)C3CC3)cc2Cl)CCN1C1CCN(Cc2ccc(Br)cc2F)CC1` [compound 408], the IC50 was less than 25 nM.
The result for `CCNC(=O)N(CC)Cc1cnc(N2CCN(C3CCN(Cc4ccc(Cl)cc4F)CC3)[C@@H](CC)C2)c(Cl)c1` [compound 409] reads 25 to 100 nM; that for `CC[C@H]1CN(c2ncc(CNC(=O)N(C)C)cc2Cl)CCN1C1CCN(Cc2ccc(Cl)cc2F)CC1` [compound 410], 25 to 100 nM.
Regarding `CCC(=O)c1cnc(N2CCN(C3CCN(Cc4ccc(Cl)cc4F)CC3)[C@@H](CC)C2)c(Cl)c1` [compound 411], the IC50 was 25 to 100 nM.
As for `CC[C@H]1CN(c2ncc(CNc3c(NC4CC4)c(=O)c3=O)cc2Cl)CCN1C1CCN(Cc2ccc(Br)cc2F)CC1` [compound 412], the figure is 25 to 100 nM; as for `CC[C@H]1CN(c2ncc(CN)cc2Cl)CCN1C1CCN(Cc2ccc(Cl)cc2)CC1` [compound 413], 25 to 100 nM; as for `CC[C@H]1CN(c2ncc(CN(C3CC3)S(C)(=O)=O)cc2Cl)CCN1C1CCN(Cc2ccc(Cl)cc2F)CC1` [compound 414], 25 to 100 nM.
`CCOC(=N)c1cnc(N2CCN(C3CCN(Cc4ccc(Cl)cc4F)CC3)[C@@H](CC)C2)c(Cl)c1` [compound 415] gave an IC50 of 25 to 100 nM.
Compound `CC[C@H]1CN(c2ncc(CNS(=O)(=O)CC(F)(F)F)cc2Cl)CCN1C1CCN(Cc2ccc(Cl)cc2F)CC1` [compound 416] showed an IC50 of 25 to 100 nM.
The result for `CC[C@H]1CN(c2ncc(CNC(=O)Nc3c(C)noc3C)cc2Cl)CCN1C1CCN(Cc2ccc(Cl)cc2F)CC1` [compound 417] reads 25 to 100 nM.
In turn, `CC[C@H]1CN(c2ncc(CO)cc2Cl)CCN1C1CCN(C(=O)c2ccc(Br)cc2)CC1` [compound 418] returned an IC50 of 25 to 100 nM.
In the case of `CC[C@H]1CN(c2ncc(C(=O)C3CC3)cc2Cl)CCN1C1CCN(Cc2ccc(Cl)cc2F)CC1` [compound 419], the IC50 is 25 to 100 nM.
`CC[C@H]1CN(c2ncc(COC(=O)Nc3ccc(F)cc3)cc2Cl)CCN1C1CCN(Cc2ccc(Cl)cc2F)CC1` [compound 420] displayed an IC50 of 25 to 100 nM.
`CC[C@H]1CN(c2ncc(CN)cc2Cl)CCN1C1CCN(Cc2ccc(Br)cc2F)CC1` [compound 421] gave an IC50 of 25 to 100 nM.
`CCOC(CNC(=N)c1cnc(N2CCN(C3CCN(Cc4ccc(Cl)cc4F)CC3)[C@@H](CC)C2)c(Cl)c1)OCC` [compound 422]: the IC50 fell in the range of 25 to 100 nM.
As for `CCNC(=O)N(Cc1cnc(N2CCN(C3CCN(Cc4ccc(Cl)cc4F)CC3)[C@@H](CC)C2)c(Cl)c1)C1CC1` [compound 423], the figure is 25 to 100 nM; as for `CCOCc1cnc(N2CCN(C3CCN(Cc4ccc(Cl)cc4F)CC3)[C@@H](CC)C2)c(Cl)c1` [compound 424], 25 to 100 nM; as for `CC[C@H]1CN(c2ncc(CN)cc2Cl)CCN1C1CCN(Cc2ccc(Cl)cc2F)CC1` [compound 425], 25 to 100 nM.
In the case of `CC[C@H]1CN(c2ncc(C(=N)NN)cc2Cl)CCN1C1CCN(Cc2ccc(Cl)cc2F)CC1` [compound 426], the IC50 lay within 25 to 100 nM.
The compound `CC[C@H]1CN(c2ncc(C(C)=O)cc2Cl)CCN1C1CCN(Cc2ccc(Cl)cc2F)CC1` [compound 427] came in with an IC50 of 25 to 100 nM.
In turn, `CC[C@H]1CN(c2ncc(C(=O)c3ncco3)cc2Cl)CCN1C1CCN(Cc2ccc(Cl)cc2F)CC1` [compound 428] yielded an IC50 of 25 to 100 nM.
In the case of `C[C@H]1CN(c2ncc(C(=N)N)cc2Cl)CCN1C1CCN(Cc2ccc(Cl)cc2)CC1` [compound 429], the IC50 was in the range of 25 to 100 nM.
In turn, `CCNC(=N)c1cnc(N2CCN(C3CCN(Cc4ccc(Cl)cc4)CC3)[C@@H](C)C2)c(Cl)c1` [compound 430] showed an IC50 of 25 to 100 nM.
`CC[C@H]1CN(c2ncc(CNC3=NCCN3)cc2Cl)CCN1C1CCN(Cc2ccc(Cl)cc2F)CC1` [compound 431] came in with an IC50 of 25 to 100 nM.
`CC[C@H]1CN(c2ncc(CN(C(=O)N(C)C)C3CC3)cc2Cl)CCN1C1CCN(Cc2ccc(Cl)cc2F)CC1` [compound 432] yielded an IC50 of 25 to 100 nM.
As for `CC[C@H]1CN(c2ncc(C(C)O)cc2Cl)CCN1C1CCN(Cc2ccc(Cl)cc2F)CC1` (stereo partly drawn) [compound 433], the figure is greater than 100 nM; as for `CCNC(=O)OC(C)c1cnc(N2CCN(C3CCN(Cc4ccc(Cl)cc4F)CC3)[C@@H](CC)C2)c(Cl)c1` (stereo partly drawn) [compound 434], greater than 100 nM; as for `CC[C@H]1CN(c2ncc(C(=O)OC)cc2Cl)CCN1C1CCN(Cc2ccc(Br)cc2F)CC1` [compound 435], greater than 100 nM.
The result for `CC[C@H]1CN(c2ncc(C(=O)O)cc2Cl)CCN1C1CCN(Cc2ccc(Cl)cc2F)CC1` [compound 436] reads greater than 100 nM; that for `CC[C@H]1CN(c2ncc(C(O)c3ncco3)cc2Cl)CCN1C1CCN(Cc2ccc(Cl)cc2F)CC1` (stereo partly drawn) [compound 437], greater than 100 nM.
As for `CC[C@H]1CN(c2c(Cl)cc(C(=O)OC)c[n+]2[O-])CCN1C1CCN(Cc2ccc(Cl)cc2F)CC1` [compound 438], the figure is greater than 100 nM.
Take `CC/N=C(/NCC)c1cnc(N2CCN(C3CCN(Cc4ccc(Cl)cc4)CC3)[C@@H](C)C2)c(Cl)c1` [compound 439]: the IC50 was greater than 100 nM.
The result for `C[C@H]1CN(c2ncc(CN)cc2Cl)CCN1C1CCN(Cc2ccc(Cl)cc2)CC1` [compound 440] reads greater than 100 nM.
